What was measured:
[1] = Visible lambda max of the activated form in polymer test squares (Varian Cary 3 UV-Visible spectrophotometer); type: physicochemical; conditions: activated (colored) form in test square of BPA 2EO DMA / poly(ethylene glycol) 600 dimethacrylate, 1.5×10^-3 molal
Experimental: (§1) Testing was done with the photochromic compounds prepared in Examples 1-11 in the following manner. A quantity of each photochromic compound calculated to yield a 1.5×10^-3 molal solution was added to a flask containing 50 grams of a monomer blend of 4 parts ethoxylated bisphenol A dimethacrylate (BPA 2EO DMA), 1 part poly(ethylene glycol) 600 dimethacrylate, and 0.033 weight percent 2,2'-azobis(2-methyl propionitrile) (AIBN). Each photochromic compound was dissolved into the monomer blend by stirring and gentle heating. After a clear solution was obtained, it was poured into a flat sheet mold having the interior dimensions of 2.2 mm×6 inches (15.24 cm)×6 inches (15.24 cm). The mold was sealed and placed in a horizontal air flow, programmable oven programmed to increase the temperature from 40° C. to 95° C. over […], hold the temperature at 95° C. for 3 hours, lower it to 60° C. over a 2 hour interval and then hold at 60° C. for 16 hours. After the mold was opened, the polymer sheet was cut using a diamond blade saw into 2 inch (5.1 centimeters) test squares.
The Δ OD/min, which represents the sensitivity of the photochromic compound's response to UV light, was measured over the first five (5) seconds of UV exposure, then expressed on a per minute basis. The saturation optical density (Δ OD@ Saturation) was taken under identical conditions as the Δ OD/min, except UV exposure was continued for 15 minutes. The lambda max (Vis) is the wavelength in nanometers (nm) in the visible spectrum at which the maximum absorption of the activated (colored) form of the photochromic compound in a test square occurs. The lambda max (Vis) wavelength was determined by testing the photochromic test square polymerizates of Part A in a Varian Cary 3 UV-Visible spectrophotometer. The Bleach Rate (T 1/2) is the time interval in seconds for the absorbance of the activated form of the photochromic compound in the test squares to reach one half the highest absorbance at room temperature (72° F., 22.20C.) after removal of the source of activating light.

[2] = Photochromic response of polymer test squares on an optical bench; type: physicochemical; conditions: for ΔOD @ Saturation: UV exposure continued for 15 minutes; for ΔOD @ Saturation / Sensitivity ΔOD/min: 72° F. (22.2° C.); for Sensitivity ΔOD/min: first five (5) seconds of UV exposure, expressed per minute; for Bleach Rate T 1/2: time for absorbance of activated form to reach one half the highest absorbance at room temperature (72° F.) after removal of activating light
Experimental: as §1
The photochromic test squares prepared in Part A were tested for photochromic response on an optical bench. Prior to testing on the optical bench, the photochromic test squares were exposed to 365 nanometer ultraviolet light for about 15 minutes to activate the photochromic compounds and then placed in a 76° C. oven for about 15 minutes to bleach or inactivate the photochromic compounds. The test squares were then cooled to room temperature, exposed to fluorescent room lighting for at least 2 hours and then kept covered for at least 2 hours prior to testing on an optical bench maintained at 72° F. (22.2° C.). The bench was fitted with a 150 watt Xenon arc lamp, a remote controlled shutter, a copper sulfate bath acting as a heat sink for the arc lamp, a Schott WG-320 nm cut-off filter which removes short wavelength radiation; neutral density filter(s) and a sample holder in which the square to be tested was inserted. The power output of the optical bench, i.e., the dosage of light that the sample lens would be exposed to, was calibrated with a photochromic test square used as a reference standard. […] The UV-A detector was placed into the sample holder and the light output was measured. Adjustments to the power output were made by increasing or decreasing the lamp wattage or by adding or removing neutral density filters in the light path.
A monitoring, collimated beam of light from a tungsten lamp was passed through the square at a small angle (approximately […]) normal to the square. After passing through the square, the light from the tungsten lamp was directed to a detector through Spectral Energy Corp. GM-200 monochromator set at the previously determined visible lambda max of the photochromic compound being measured. The output signals from the detector were processed by a radiometer.
Change in optical density (ΔOD) was determined by inserting a test square in the bleached state into the sample holder, adjusting the transmittance scale to 100%, opening the shutter from the Xenon lamp to provide ultraviolet radiation to change the test square from the bleached state to an activated (i.e., darkened) state, measuring the transmittance in the activated state, and calculating the change in optical density according to the formula: ΔOD=log(100/% Ta), where % Ta is the percent transmittance in the activated state and the logarithm is to the base 10.
The Δ OD/min, which represents the sensitivity of the photochromic compound's response to UV light, was measured over the first five (5) seconds of UV exposure, then expressed on a per minute basis. The saturation optical density (Δ OD@ Saturation) was taken under identical conditions as the Δ OD/min, except UV exposure was continued for 15 minutes. […]

Row | Structure (SMILES) | lambda max (Vis) [1] [nanometers] | ΔOD @ Saturation [2] | Sensitivity ΔOD/min [2] | Bleach Rate T 1/2 [2] [s] | other results
1 | COc1ccc(C2(c3ccc(N4CCOCC4)cc3)C=Cc3c(c4c5ccccc5c(=O)oc4c4ccccc34)O2)cc1 (centres unmarked) [Compound 3A, 2-(4-methoxyphenyl)-2-(4-morpholinophenyl)-10-oxo-2,10-dihydro[2]benzopyrano[4',3':3,4]naphtho(2,1-b)pyran] | 530 | 0.01 | 0.04 ΔOD/min | 3 | 
2 | COc1ccc(C2(c3ccc(N4CCOCC4)cc3)C=Cc3c4c(c5ccccc5c3O2)-c2ccccc2C(C)(C)O4)cc1 (centres unmarked) [Compound 4, 10,10-dimethyl-6-(4-methoxyphenyl)-6-(4-morpholinophenyl)-6,10-dihydro[2]benzopyrano[3',4':3,4]naphtho(1,2-b)pyran] |  |  |  |  | lambda max (Vis) ([1]; listed as 4A): 598 nanometers; lambda max (Vis) ([1]; listed as 4B): 472 nanometers; ΔOD @ Saturation ([2]; listed as 4A): 0.23; ΔOD @ Saturation ([2]; listed as 4B): 0.19; Sensitivity ΔOD/min ([2]; listed as 4A): 0.18 ΔOD/min; Sensitivity ΔOD/min ([2]; listed as 4B): 0.12 ΔOD/min; Bleach Rate T 1/2 ([2]; listed as 4A): 68 s; Bleach Rate T 1/2 ([2]; listed as 4B): 61 s
3 | O=c1oc2ccccc2c2c1c1c(c3ccccc32)OC(c2ccccc2)(c2ccccc2)C=C1 [Compound 10, 6,6-diphenyl-9-oxo-6,9-dihydro[1]benzopyrano[3',4':3,4]naphtho(1,2-b)pyran] | 484 | 0.26 | 0.69 ΔOD/min | 19 | 
4 | O=c1oc2c3ccc4c(c3ccc2c2ccccc12)C=CC(c1ccccc1)(c1ccccc1)O4 [Compound 11, 3,3-diphenyl-8-oxo-3,8-dihydro[2]benzopyrano[3',4':5,6]naphtho(2,1-b)pyran] | 466 | 0.02 | 0.12 ΔOD/min |  | 
5 | COc1ccc(C2(c3ccc(OC)cc3)C=Cc3c(c4ccccc4c4c3oc(=O)c3ccccc34)O2)cc1 [Compound 1B, 6,6-bis(4-methoxyphenyl)-10-oxo-6,10-dihydro[2]benzopyrano[3',4':3,4]naphtho(1,2-b)pyran] | 537 | 0.07 | 0.19 ΔOD/min | 24 | 
6 | COc1ccc(C2(c3ccc(N4CCOCC4)cc3)C=Cc3c(c4ccccc4c4c3oc(=O)c3ccccc34)O2)cc1 (centres unmarked) [Compound 3B, 6-(4-methoxyphenyl)-6-(4-morpholinophenyl)-10-oxo-6,10-dihydro[2]benzopyrano[3',4':3,4]naphtho(1,2-b)pyran] | 598 | 0.06 | 0.13 ΔOD/min | 39 | 
7 | COc1ccc(C2(c3ccc(OC)cc3)C=Cc3c4c(c5ccccc5c3O2)-c2ccccc2CO4)cc1 [Compound 2, 6,6-bis(4-methoxyphenyl)-6,10-dihydro[2]benzopyrano[3'4':3,4]naphtho(1,2-b)pyran] |  |  |  |  | lambda max (Vis) ([1]; listed as 2A): 546 nanometers; lambda max (Vis) ([1]; listed as 2B): 432 nanometers; ΔOD @ Saturation ([2]; listed as 2A): 0.22; ΔOD @ Saturation ([2]; listed as 2B): 0.27; Sensitivity ΔOD/min ([2]; listed as 2A): 0.10 ΔOD/min; Sensitivity ΔOD/min ([2]; listed as 2B): 0.12 ΔOD/min; Bleach Rate T 1/2 ([2]; listed as 2A): 116 s; Bleach Rate T 1/2 ([2]; listed as 2B): 112 s
8 | COc1ccc(C2(c3ccccc3)C=Cc3c4c(c5ccccc5c3O2)-c2cc(OC)c(OC)cc2C(C)(C)O4)cc1 (centres unmarked) [Compound 8, 6-(4-methoxyphenyl)-6-phenyl-12,13-dimethoxy-10,10-dimethyl-6,10-dihydro[2]benzopyrano [3',4':3,4]naphtho(1,2-b)pyran] | 602 | 0.21 | 0.08 ΔOD/min | 216 | 

More lines, main results first:

Row | lambda max (Vis) [1] [nanometers] | ΔOD @ Saturation [2] | Sensitivity ΔOD/min [2] | Bleach Rate T 1/2 [2] [s] | Structure (SMILES) | other results
9 | 569 | 0.22 | 0.27 ΔOD/min | 54 | COc1ccc(C2(c3ccccc3)C=Cc3c(c4ccccc4c4c3oc(=O)c3cc(OC)c(OC)cc34)O2)cc1 (centres unmarked) [Compound 7A, 6-(4-methoxyphenyl)-6-phenyl-12,13-dimethoxy-10-oxo-6,10-dihydro[2]benzopyrano[3',4':3,4]naphtho(1,2-b)pyran] | 
10 | 570 | 0.12 | 0.21 ΔOD/min | 37 | O=c1oc2c3ccccc3c3c(c2c2ccccc12)OC(c1ccccc1)(c1ccc(N2CCOCC2)cc1)C=C3 (centres unmarked) [Compound 5A, 2-(4-morpholinophenyl)-2-phenyl-10-oxo-2,10-dihydro[2]benzopyrano[4',3':3,4]naphtho(2,1-b)pyran] | 
11 | 464 | 0.29 | 0.31 ΔOD/min | 47 | COc1ccc(C2(c3ccccc3)C=Cc3c(c4c5cc(OC)c(OC)cc5c(=O)oc4c4ccccc34)O2)cc1 (centres unmarked) [Compound 7B, 2-(4-methoxphenyl)-2-phenyl-12,13-dimethoxy-10-oxo-2,10-dihydro[2]benzopyrano[4',3':3,4]naphtho(2,1-b)pyran] | 
12 | 477 | 0.13 | 0.19 ΔOD/min | 28 | COc1ccc(C2(c3ccc(OC)cc3)C=Cc3c(c4c5cc(OC)c(OC)cc5c(=O)oc4c4ccccc34)O2)cc1 [Compound 6A, 2,2-bis(4-methoxyphenyl)-12,13-dimethoxy-10-oxo-2,10-dihydro[2]benzopyrano[4',3':3,4]naphtho(2,1-b)pyran] | 
13 | 569 | 0.10 | 0.22 ΔOD/min | 32 | COc1ccc(C2(c3ccc(OC)cc3)C=Cc3c(c4ccccc4c4c3oc(=O)c3cc(OC)c(OC)cc34)O2)cc1 [Compound 6B, 6,6-bis(4-methoxyphenyl)-12,13-dimethoxy-10-oxo-6,10-dihydro[2]benzopyrano[3',4':3,4]naphtho(1,2-b)pyran] | 
